# Activity calls are given as the source filed them. No cut-off for these calls is given here.
# What was measured:
# A549 [1] = test: In vivo antitumor activity against human A549 cells xenografted in female BALB/c nu/nu mouse assessed as tumor volume at 5 mg/kg, iv administered every 3 days using self assembled nanoparticle as source of compound and measured on 18 day relative to control; type: functional; conditions: time 3 day
# Histone deacetylase 4 = Histone deacetylase 4 (Homo sapiens, UniProt P56524); test: Inhibition of recombinant human HDAC4 using Boc-Lys (trifluroacetyl)-AMC as substrate preincubated with compound for 1 hr followed by substrate addition and measured after 30 mins by microplate reader assay
# [2] = Biodistribution in lung of nude mouse xenografted with A549 cells at 5 mg/kg, iv using chlorine e6 loaded self-assembled nanoparticle as source of compound incubated for 24 hrs by ex-vivo fluorescence based LC-MS/MS analysis; type: ADME, organism-based
# [3] = Drug accumulation in nude mouse xenografted with A549 cells assessed as increase in fluorescence at 5 mg/kg, iv using chlorine e6 loaded self-assembled nanoparticle as source of compound incubated for 24 hrs by ex-vivo fluorescence based analysis; type: ADME, organism-based
# [4] = target: Signal transducer and activator of transcription 5A (Homo sapiens, UniProt P42229); test: Binding affinity to STAT5A (unknown origin) assessed as dissociation constant by SPR assay
# [5] = Toxicity in female BALB/c nu/nu mouse xenografted with human A549 cells assessed as effect on lung at 5 mg/kg, iv by H and E staining based analysis; type: organism-based; conditions: in vivo
# A549 [6] = test: Induction of autophagy in human A549 cells transfected with mRFP-GFP-LC3 assessed as increase in red puncta at 0.5 uM incubated for 24 hrs by confocal microscopic analysis; type: functional, cell-based
# [7] = Toxicity in female BALB/c nu/nu mouse xenografted with human A549 cells assessed as effect on kidney at 5 mg/kg, iv by H and E staining based analysis; type: organism-based; conditions: in vivo
# [8] = Toxicity in female BALB/c nu/nu mouse xenografted with human A549 cells assessed as effect on spleen at 2.5 mg/kg, iv by H and E staining based analysis; type: organism-based; conditions: in vivo
# [9] = target: Protein deacetylase HDAC6 (Homo sapiens) (UniProt Q9UBN7); test: Inhibition of HDAC6 in human A549 cells assessed as increase in […] level at 0.5 uM incubated for 12 hrs by Western blot analysis; type: cell-based
# A549 [10] = test: Induction of autophagy in human A549 cells transfected with mRFP-GFP-LC3 assessed as increase in yellow puncta at 0.5 uM incubated for 24 hrs by confocal microscopic analysis; type: functional, cell-based
# [11] = Biodistribution in kidney of nude mouse xenografted with A549 cells at 5 mg/kg, iv using chlorine e6 loaded self-assembled nanoparticle as source of compound incubated for 24 hrs by ex-vivo fluorescence based LC-MS/MS analysis; type: ADME, organism-based
# [12] = target: Signal transducer and activator of transcription 3 (Homo sapiens, UniProt P40763); test: Inhibition of STAT3 (unknown origin) in human A549 cells incubated for 4 hrs by Cellular thermal shift assay; type: cell-based
# Histone deacetylase 11 = Histone deacetylase 11 (Homo sapiens, UniProt Q96DB2); test: Inhibition of recombinant human HDAC11 using Boc-Lys (trifluroacetyl)-AMC as substrate preincubated with compound for 1 hr followed by substrate addition and measured after 30 mins by microplate reader assay
# [13] = Biodistribution in liver of nude mouse xenografted with A549 cells at 5 mg/kg, iv using chlorine e6 loaded self-assembled nanoparticle as source of compound incubated for 24 hrs by ex-vivo fluorescence based LC-MS/MS analysis; type: ADME, organism-based
# [14] = target: T1, Protein deacetylase HDAC6 (Homo sapiens, UniProt Q9UBN7); test: Inhibition of recombinant human HDAC6 using Boc-Lys (acetyl)-AMC as substrate preincubated with compound for 1 hr followed by substrate addition and measured after 30 mins by microplate reader assay
# T1 sequence (Q9UBN7 whole entry): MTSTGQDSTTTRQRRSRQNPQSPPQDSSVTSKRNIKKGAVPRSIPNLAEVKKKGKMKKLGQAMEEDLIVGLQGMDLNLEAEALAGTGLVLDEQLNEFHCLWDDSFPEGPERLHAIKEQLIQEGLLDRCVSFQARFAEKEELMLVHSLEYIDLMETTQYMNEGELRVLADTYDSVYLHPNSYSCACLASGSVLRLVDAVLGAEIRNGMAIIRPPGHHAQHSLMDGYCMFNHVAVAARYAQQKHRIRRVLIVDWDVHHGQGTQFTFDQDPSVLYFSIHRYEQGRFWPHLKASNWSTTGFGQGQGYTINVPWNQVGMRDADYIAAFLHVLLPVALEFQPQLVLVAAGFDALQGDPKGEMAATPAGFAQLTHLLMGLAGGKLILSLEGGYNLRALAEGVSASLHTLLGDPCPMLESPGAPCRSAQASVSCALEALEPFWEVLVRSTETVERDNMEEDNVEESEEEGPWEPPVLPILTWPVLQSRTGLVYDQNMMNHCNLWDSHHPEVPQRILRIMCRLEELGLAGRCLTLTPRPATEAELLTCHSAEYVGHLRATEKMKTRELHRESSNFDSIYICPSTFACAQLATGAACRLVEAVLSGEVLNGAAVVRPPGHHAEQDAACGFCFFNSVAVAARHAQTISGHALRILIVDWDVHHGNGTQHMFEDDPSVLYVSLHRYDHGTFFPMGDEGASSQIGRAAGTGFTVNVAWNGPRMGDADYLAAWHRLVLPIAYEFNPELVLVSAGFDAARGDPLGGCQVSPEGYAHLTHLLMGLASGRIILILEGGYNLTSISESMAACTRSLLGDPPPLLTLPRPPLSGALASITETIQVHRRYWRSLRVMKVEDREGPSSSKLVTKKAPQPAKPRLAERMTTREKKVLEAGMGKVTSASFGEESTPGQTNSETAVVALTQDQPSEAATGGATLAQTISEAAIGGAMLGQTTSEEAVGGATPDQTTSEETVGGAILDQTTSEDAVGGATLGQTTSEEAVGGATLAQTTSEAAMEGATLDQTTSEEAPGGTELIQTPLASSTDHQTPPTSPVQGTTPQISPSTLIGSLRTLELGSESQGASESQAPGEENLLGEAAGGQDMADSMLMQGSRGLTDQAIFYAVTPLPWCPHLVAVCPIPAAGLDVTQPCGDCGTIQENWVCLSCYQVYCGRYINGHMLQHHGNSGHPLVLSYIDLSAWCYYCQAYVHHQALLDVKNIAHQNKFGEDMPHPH
# A549 [15] = test: Induction of apoptosis in human A549 cells assessed as decrease in BCL-2 protein level at 6 uM incubated for 12 hrs by Western blot analysis
# HCT-116 = test: cells; conditions: Homo sapiens, HCT-116, 72 h
# Description: Antiproliferative activity against human HCT-116 cells assessed as inhibition of cell proliferation incubated for 72 hrs by CCK-8 assay
# [16] = Toxicity in female BALB/c nu/nu mouse xenografted with human A549 cells assessed as effect on liver at 2.5 mg/kg, iv by H and E staining based analysis; type: organism-based; conditions: in vivo
# Histone deacetylase 3 = Histone deacetylase 3 (Homo sapiens, UniProt O15379); test: Inhibition of recombinant human HDAC3 using Boc-Lys (acetyl)-AMC as substrate preincubated with compound for 1 hr followed by substrate addition and measured after 30 mins by microplate reader assay
# Sequence of Histone deacetylase 3 (O15379 whole entry): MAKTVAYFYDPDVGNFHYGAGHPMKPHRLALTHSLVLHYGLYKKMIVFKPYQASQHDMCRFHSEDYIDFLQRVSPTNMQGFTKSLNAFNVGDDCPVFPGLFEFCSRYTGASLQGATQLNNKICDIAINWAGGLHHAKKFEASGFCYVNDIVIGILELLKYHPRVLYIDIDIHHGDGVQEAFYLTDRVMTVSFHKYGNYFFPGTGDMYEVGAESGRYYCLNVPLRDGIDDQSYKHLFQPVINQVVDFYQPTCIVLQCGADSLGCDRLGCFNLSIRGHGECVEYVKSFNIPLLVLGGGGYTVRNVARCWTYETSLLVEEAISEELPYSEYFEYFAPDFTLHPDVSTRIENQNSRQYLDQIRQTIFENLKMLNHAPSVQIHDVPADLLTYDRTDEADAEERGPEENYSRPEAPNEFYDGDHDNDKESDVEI
# Sequence of Signal transducer and activator of transcription 3 (P40763 whole entry): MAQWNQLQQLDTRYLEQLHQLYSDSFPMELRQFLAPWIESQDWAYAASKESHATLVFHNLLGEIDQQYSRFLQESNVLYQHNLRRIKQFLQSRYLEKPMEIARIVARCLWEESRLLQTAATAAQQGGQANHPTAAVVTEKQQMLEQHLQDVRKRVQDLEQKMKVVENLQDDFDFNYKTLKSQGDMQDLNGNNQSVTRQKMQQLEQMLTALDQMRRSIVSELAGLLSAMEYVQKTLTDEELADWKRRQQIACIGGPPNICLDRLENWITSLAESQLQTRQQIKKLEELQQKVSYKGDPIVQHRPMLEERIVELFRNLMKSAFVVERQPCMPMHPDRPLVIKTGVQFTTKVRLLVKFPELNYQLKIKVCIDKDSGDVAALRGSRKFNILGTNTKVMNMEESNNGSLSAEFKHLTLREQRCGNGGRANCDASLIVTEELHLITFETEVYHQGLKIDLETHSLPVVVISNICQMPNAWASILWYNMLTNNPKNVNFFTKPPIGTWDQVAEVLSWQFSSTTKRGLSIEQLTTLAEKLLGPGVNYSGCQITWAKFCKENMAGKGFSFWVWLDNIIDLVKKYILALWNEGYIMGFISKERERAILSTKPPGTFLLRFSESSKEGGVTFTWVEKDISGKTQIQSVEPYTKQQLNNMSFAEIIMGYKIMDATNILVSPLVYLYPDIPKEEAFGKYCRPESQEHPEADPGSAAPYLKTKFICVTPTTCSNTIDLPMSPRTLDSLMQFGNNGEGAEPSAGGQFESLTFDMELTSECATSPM
# Sequence of Signal transducer and activator of transcription 5A (P42229 whole entry): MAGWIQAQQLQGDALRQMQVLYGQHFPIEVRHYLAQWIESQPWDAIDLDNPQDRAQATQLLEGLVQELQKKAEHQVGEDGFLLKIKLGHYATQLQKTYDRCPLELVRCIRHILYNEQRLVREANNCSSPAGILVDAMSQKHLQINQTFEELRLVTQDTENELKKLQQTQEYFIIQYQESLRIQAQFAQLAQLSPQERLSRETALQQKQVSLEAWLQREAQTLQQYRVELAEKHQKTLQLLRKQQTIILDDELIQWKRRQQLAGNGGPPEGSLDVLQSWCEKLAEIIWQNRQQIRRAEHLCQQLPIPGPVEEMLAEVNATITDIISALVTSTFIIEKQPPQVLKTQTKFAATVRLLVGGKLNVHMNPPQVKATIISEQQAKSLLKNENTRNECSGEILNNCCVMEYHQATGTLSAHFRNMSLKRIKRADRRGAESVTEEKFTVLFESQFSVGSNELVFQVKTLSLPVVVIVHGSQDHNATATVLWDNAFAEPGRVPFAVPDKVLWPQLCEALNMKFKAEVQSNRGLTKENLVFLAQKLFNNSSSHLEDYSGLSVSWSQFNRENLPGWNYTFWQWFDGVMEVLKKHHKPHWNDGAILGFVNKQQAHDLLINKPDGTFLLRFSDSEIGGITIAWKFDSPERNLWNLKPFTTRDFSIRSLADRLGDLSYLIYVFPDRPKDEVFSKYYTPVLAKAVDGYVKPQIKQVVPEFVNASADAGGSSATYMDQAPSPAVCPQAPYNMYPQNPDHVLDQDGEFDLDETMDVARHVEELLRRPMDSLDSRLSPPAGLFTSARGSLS
# Sequence of Histone deacetylase 4 (P56524 whole entry): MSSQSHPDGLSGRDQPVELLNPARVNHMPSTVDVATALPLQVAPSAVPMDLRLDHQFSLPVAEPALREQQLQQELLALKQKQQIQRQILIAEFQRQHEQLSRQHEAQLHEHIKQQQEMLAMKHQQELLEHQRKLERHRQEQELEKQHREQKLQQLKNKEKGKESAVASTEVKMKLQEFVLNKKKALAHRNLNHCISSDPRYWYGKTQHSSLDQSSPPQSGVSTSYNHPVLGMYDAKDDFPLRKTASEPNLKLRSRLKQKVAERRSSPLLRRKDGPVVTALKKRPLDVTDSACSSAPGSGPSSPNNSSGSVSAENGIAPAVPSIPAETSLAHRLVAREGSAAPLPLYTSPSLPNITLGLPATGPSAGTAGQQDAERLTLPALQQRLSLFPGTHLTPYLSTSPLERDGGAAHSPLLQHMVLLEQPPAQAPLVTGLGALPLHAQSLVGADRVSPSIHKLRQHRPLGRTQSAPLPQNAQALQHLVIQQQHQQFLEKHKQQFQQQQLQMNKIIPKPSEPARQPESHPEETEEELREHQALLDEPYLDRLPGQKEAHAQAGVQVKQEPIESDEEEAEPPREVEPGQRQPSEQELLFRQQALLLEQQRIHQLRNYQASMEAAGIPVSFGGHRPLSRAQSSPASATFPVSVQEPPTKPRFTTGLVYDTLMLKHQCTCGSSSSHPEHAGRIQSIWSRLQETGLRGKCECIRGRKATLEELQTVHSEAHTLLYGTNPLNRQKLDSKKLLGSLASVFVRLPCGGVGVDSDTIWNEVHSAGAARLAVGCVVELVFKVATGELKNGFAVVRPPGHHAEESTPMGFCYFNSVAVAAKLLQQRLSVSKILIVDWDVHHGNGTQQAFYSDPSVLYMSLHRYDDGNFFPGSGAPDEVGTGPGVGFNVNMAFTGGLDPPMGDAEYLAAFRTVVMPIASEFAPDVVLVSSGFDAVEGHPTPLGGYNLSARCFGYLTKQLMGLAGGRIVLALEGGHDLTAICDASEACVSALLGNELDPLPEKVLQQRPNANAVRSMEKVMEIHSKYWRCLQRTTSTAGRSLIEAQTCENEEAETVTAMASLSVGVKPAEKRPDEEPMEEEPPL
# Sequence of Histone deacetylase 11 (Q96DB2 whole entry): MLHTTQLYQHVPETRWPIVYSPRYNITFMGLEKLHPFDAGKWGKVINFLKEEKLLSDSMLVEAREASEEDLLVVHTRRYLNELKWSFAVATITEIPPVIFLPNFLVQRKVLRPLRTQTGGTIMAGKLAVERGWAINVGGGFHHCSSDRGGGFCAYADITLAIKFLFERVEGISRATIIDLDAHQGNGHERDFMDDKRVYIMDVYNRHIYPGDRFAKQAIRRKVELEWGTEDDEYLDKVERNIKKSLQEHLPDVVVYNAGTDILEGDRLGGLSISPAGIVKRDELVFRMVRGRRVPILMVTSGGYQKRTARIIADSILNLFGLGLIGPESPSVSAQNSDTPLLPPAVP
compound,measurement,setting,value
C=C1C(=O)O[C@@H]2C[C@@]3(C)CC[C@@H](OC(=O)[C@H](C)NC(=O)c4ccc(/C=C/C(=O)NO)cc4)C(=C)[C@@H]3C[C@H]12,Activity,A549 [1],19.9%
same,IC50,Histone deacetylase 4,> 10000 nM
same,Drug uptake,[2],Active
same,Drug uptake,[3],Active
same,Kd,[4],Not Active
same,Activity,[5],Non-Toxic
same,Activity,A549 [6],Active
same,Activity,[7],Non-Toxic
same,Activity,[8],Non-Toxic
same,inhibition,[9],Active
same,Activity,A549 [10],Active
same,Drug uptake,[11],Active
same,inhibition,[12],Active
same,IC50,Histone deacetylase 11,265 nM
same,Drug uptake,[13],Active
same,IC50,[14],7.69 nM
same,Activity,A549 [15],Active
same,IC50,HCT-116,40 nM
same,Activity,[16],Non-Toxic
same,IC50,Histone deacetylase 3,51.9 nM

# — ChEMBL document CHEMBL6071142, “Isoalantolactone/hydroxamic acid hybrids as potent dual STAT3/HDAC inhibitors and self-assembled nanoparticles for cancer therapy” (Eur J Med Chem, 2024)
